Molecules are shown by their SMILES.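 Cells were grown in 96-well plates and exposed to each compound for 48 hours at five concentrations; endpoints were interpolated linearly between bracketing concentrations, or set to the highest concentration if not reached. The concentration for full growth arrest is given as TGI.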

Holding throughout (experiment): DTP human tumour cell line panel, 48 h
The test system of assay [1] is DU-145 prostate.
The test system of assay [2] is COLO 205 colon.
Assay [3] concerns RPMI-8226 leukemia.
The test system of assay [4] is UACC-257 melanoma.
For assay [5], the system named is HCC-2998 colon.
The test system of assay [6] is UO-31 renal.
In assay [7] the test system is HT29 colon.
Assay [8] has as its system MALME-3M melanoma.
Assay [9] relates to U251 CNS.
Assay [10] relates to SNB-75 CNS.
Assay [11] concerns SF-539 CNS.
Assay [12] deals with EKVX NSCLC.
The test system of assay [13] is MDA-MB-231 breast.
Assay [14] has as its system HOP-62 NSCLC.
For assay [15], the system named is OVCAR-4 ovarian.
The test system of assay [16] is HL-60(TB) leukemia.
Assay [17] deals with A549 NSCLC.
The test system of assay [18] is SK-OV-3 ovarian.
Assay [19] concerns HCT-116 colon.
For assay [20], the system named is 786-0 renal.

`Cc1ccc(S(=O)(=O)N2CCN(S(=O)(=O)c3ccc(C)cc3)CCN(S(=O)(=O)c3ccc(C)cc3)Cc3cc(C#N)c(C#N)cc3CN(S(=O)(=O)c3ccc(C)cc3)CC2)cc1`: the TGI in assay [1], in assay [2], in [3], in assay [4], in assay [5] and in [6] was over 100 µM each time. Also, the total growth inhibition concentration (TGI) in assay [7], in assay [8], in assay [9], in [10], in assay [11] and in assay [12] was over 100 µM in each case. Besides, the TGI in [13], in assay [14], in [15], in assay [16], in [17] and in assay [18] was over 100 µM in each case. The total growth inhibition concentration (TGI) in assay [19] and in [20] was over 100 µM each time.
On to `CCOP(=O)(OCC)C(C)(C)N(C)/C(F)=N/C(F)(F)F`, for which the TGI in [1], in assay [2], in [3], in assay [4], in assay [5] and in assay [6] was over 100 µM each time. Besides, the TGI in assay [7], in [8], in assay [9], in assay [10], in [11] and in [12] was over 100 µM each time. Moreover, the TGI in [13], in assay [14], in assay [15], in assay [16], in assay [17] and in assay [18] was over 100 µM in each case. Besides, the TGI in [19] and in assay [20] was over 100 µM each time.
Regarding `O=C(NC(Cl)(C(F)(F)F)C(F)(F)F)c1ccc(F)cc1`, the TGI in [1], in [2], in assay [3], in assay [4], in [5] and in assay [6] was over 100 µM each time. Further, the TGI in [7] was over 100 µM; in assay [8] it was over 100 µM; in assay [9], over 100 µM; in assay [10] it was 91.6 µM; in [11], over 100 µM; in [12] it was over 100 µM. In addition, the TGI in [13], in [14], in assay [15], in [16], in assay [17] and in [18] was over 100 µM throughout. The TGI in assay [19] and in assay [20] was over 100 µM throughout.

A word on the TGI: it is the concentration at which net growth stops.

(Values after PubChem BioAssay (NCI).)
